From patent US20090304720A1, “Active Agent-Loaded Nanoparticles Based On Hydrophilic Proteins” (LTS Lohmann Therapie-Systeme AG, priority 2006, published 2009)

System: mice
Assay: tail-flick test, analgesia (nociceptive response) after intravenous injection
Assay type: in vivo, mouse
Conditions: 7.0 mg/kg loperamide, cut-off ten seconds = 100% MPE
Protocol: The preparations were applied intravenously to mice, at a dosage of 7.0 mg/kg loperamide. Based on an average body weight of a mouse of 20 g, the animals received an application amount of 200 μl of the above-mentioned preparation.
With the aid of this system, the analgesic effects shown in FIG. 1 were achieved after intravenous injection using the above-mentioned active agent loperamide. Analgesia (Nociceptive Response) was detected by the tail-flick test, wherein a hot beam of light is projected onto the tail of the mouse and the time that passes until the mouse flicks away its tail is measured. After ten seconds (=100% MPE) the experiment is discontinued so as not to cause injury to the mouse. Negative MPE values occur in those cases where following administration of the preparation, the mouse flicks away its tail earlier than before the treatment.
As a comparison, a loperamide solution 0.7 mg/ml in 2.6%-vol. ethanol was used.

## CN(C)C(=O)C(CCN1CCC(O)(c2ccc(Cl)cc2)CC1)(c1ccccc1)c1ccccc1 [loperamide]
  analgesic effect (maximal possible effect, MPE): no analgesic effect
